Article PMC4229301, “A Polymeric Prodrug of 5-Fluorouracil-1-Acetic Acid Using a Multi-Hydroxyl Polyethylene Glycol Derivative as the Drug Carrier” (PLoS ONE, 2014)

How the values were obtained:
[1] = In vivo distribution in H22 tumor-bearing mice; design: species or system Kunming mice
Method: The tumor-bearing animal model was established by subcutaneous injection of H22 cells (1×10^7 cells/ml, in 0.2 ml saline) into the right axillary region of Kunming mice. The sizes of tumors were monitored 7 days after inoculation and the tumor volumes were calculated as described in the “Antitumor activity in tumor-bearing mice” section. The mice with tumor volumes between 0.35 cm^3 and 0.65 cm^3 were randomized into two groups (n = 30). […] The mice were exsanguinated and sacrificed by neck dislocation at predetermined time points. Tissues including heart, liver, spleen, lung, kidney, brain and tumor were collected, washed with physiological saline, weighed and homogenized with two fold concentrated physiological saline. The samples of the test group were treated as hydrolyzed samples as described in the section “In vitro drug release”, whereas those of the control group were treated as unhydrolyzed samples. All data are presented as the concentration of 5-FA.
(§1) The data of pharmacokinetics and in vivo distribution study were processed using the Drug and Statistics Software 2.0 (DAS 2.0, Shanghai, China). The statistical analysis of the samples was performed by using one-way ANOVA and Student's t-test. p-values <0.05 were considered as statistically different.

[2] = Pharmacokinetics study after i.v. injection in rats; assay type: in vivo, Wistar rats
Method: Male Wistar rats were purchased from The laboratory Animal Center of Sichuan University. 12 Wistar rats (body weight: 200 g±20 g) were divided into two groups randomly (n = 6). […] The blood samples were collected into heparinized centrifuge tubes at predetermined intervals (see Table S2 in file SI) by retro-orbital puncture, and the plasma was separated by centrifugation. Each plasma sample of the test groups was divided into two portions. They were treated as hydrolyzed and unhydrolyzed as described in the “In vitro drug release” section. The two portions of the samples were analyzed by HPLC to determine the plasma concentrations of released 5-FA and total 5-FA of the conjugate whereas the plasma samples of the control group were treated as unhydrolyzed samples.
as §1

Kunming mice = assay: Safety evaluation: myelosuppression (white blood cell and blood platelet counts) after intravenous administration; details: i.v., same doses, n=12
Method: All animals were fed on a light and dark cycle and allowed free access to standard chow and water. Temperature and relative humidity were kept at 25°C and 50%, respectively. After experiment, mice were sacrificed by neck dislocation, and all efforts were made to minimize suffering. […] The control group was given physiological saline (0.009 g/ml). Zero point one mL blood samples were collected at prearranged time intervals (one day before injection and 1, 4, 7, and 10 days post injection).

[3] = male, Wistar, rat, plasma, iv, 20 mg/kg
[4] = rats, i.v., 20 mg/kg 5-FA or 189 mg/kg 5-FA-PAE

O=C(O)Cn1cc(F)c(=O)[nH]c1=O [5-FA, 5-fluorouracil-1-acetic acid]
concentration in tumor over time ([1]; H22 tumor-bearing mice, i.v. 20 mg/kg 5-FA): undetectable after 6 h
concentration at 15 min ([1]; Kunming, mouse, tumor, iv, 20 mg/kg): 4860 ± 1620 ng/g
Kp at 4 h ([1]; Kunming, mouse, tumor/plasma, iv, 20 mg/kg, H22 tumor-bearing mice, i.v., 4 h after injection, read-out: ratio of tumor/plasma concentration): 1.99
AUC(0-inf) [2, 3]: 21600 ± 4470 ng·h/mL
AUC(0-t) [2, 3]: 21400 ± 4360 ng·h/mL
Cmax [2, 3]: 74.9 ± 10.2 µg/mL
Tmax [2, 3]: 1 min
MRT last ([2]; male, Wistar, rat, plasma, iv, 20 mg/kg, read-out: MRT 0-t): 40.7 ± 8.52 min
MRT inf ([2]; male, Wistar, rat, plasma, iv, 20 mg/kg, read-out: MRT 0-∞): 47.7 ± 14.4 min
Vd ([2]; male, Wistar, rat, plasma, iv, 20 mg/kg, read-out: V (apparent volume of distribution)): 2.11 ± 0.62 L/kg
half-life ([2]; male, Wistar, rat, plasma, iv, 20 mg/kg, read-out: t1/2 (elimination half life) (converted)): 92.3 ± 25.1 min
concentration at 1 min ([2]; male, Wistar, rat, plasma, iv, rats, i.v. 20 mg/kg 5-FA, 1 min): 79.9 ± 10.2 µg/mL
concentration at 5 min ([2]; male, Wistar, rat, plasma, iv, rats, i.v. 20 mg/kg 5-FA, 5 min): 79.9 ± 2.86 µg/mL
concentration at 10 min ([2]; male, Wistar, rat, plasma, iv, rats, i.v. 20 mg/kg 5-FA, 10 min): 79.9 ± 3.52 µg/mL
concentration at 15 min ([2]; male, Wistar, rat, plasma, iv, rats, i.v. 20 mg/kg 5-FA, 15 min): 79.9 ± 5.07 µg/mL
concentration at 30 min ([2]; male, Wistar, rat, plasma, iv, rats, i.v. 20 mg/kg 5-FA, 30 min): 79.9 ± 2.8 µg/mL
concentration at 1 h ([2]; male, Wistar, rat, plasma, iv, rats, i.v. 20 mg/kg 5-FA, 1 h): 79.9 ± 0.986 µg/mL
concentration at 2 h ([2]; male, Wistar, rat, plasma, iv, rats, i.v. 20 mg/kg 5-FA, 2 h): 79.9 ± 0.814 µg/mL
time of complete removal from the blood circulation after administration ([2]; rats, i.v.): 6∼8 h
Plasma concentration, 5-FA ([2]; rats, i.v. 20 mg/kg 5-FA, 10 h): -
Plasma concentration, 5-FA ([2]; rats, i.v. 20 mg/kg 5-FA, 24 h): -
Cl (clearance) [2, 4]: 0.967 ± 0.259 mL/g/h
VRT 0-t [2, 4]: 1.519±0.326 h^2
VRT 0-∞ [2, 4]: 2.703±1.558 h^2
number of blood platelets (Kunming mice; 1 day after injection): 945 ± 139 ×10^9/L
number of blood platelets (Kunming mice; 4 days after injection): 781 ± 250 ×10^9/L
number of white blood cells (Kunming mice; 4 days after injection): 10.32±5.71 ×10^9/L
number of blood platelets (Kunming mice; 7 days after injection): 822 ± 198 ×10^9/L
number of white blood cells (Kunming mice; 7 days after injection): 10.24±4.50 ×10^9/L
number of blood platelets (Kunming mice; 10 days after injection): 860 ± 188 ×10^9/L
number of white blood cells (Kunming mice; 10 days after injection): 11.55±3.62 ×10^9/L

O=c1[nH]cc(F)c(=O)[nH]1 [5-Fu, 5-fluorouracil]
number of blood platelets (Kunming mice; 1 day after injection): 792 ± 122 ×10^9/L
number of blood platelets (Kunming mice; 4 days after injection): 819 ± 211 ×10^9/L
number of white blood cells (Kunming mice; 4 days after injection): 6.84±5.76 ×10^9/L
number of blood platelets (Kunming mice; 7 days after injection): 858 ± 254 ×10^9/L
number of white blood cells (Kunming mice; 7 days after injection): 7.34±2.82 ×10^9/L
number of blood platelets (Kunming mice; 10 days after injection): 863 ± 382 ×10^9/L
number of white blood cells (Kunming mice; 10 days after injection): 8.59±2.39 ×10^9/L
